Measurements published in patent publication US9592217B2, “Method for treating skin inflammatory diseases” (Olatec Therapeutics LLC, priority 2012, dated 2017).
Read-outs that look alike come from different tables or passages of the source.

How the values were obtained:
Format in all cases: in vivo
[1] = test system: arachidonic acid induced ear swelling; assay: Topical arachidonic acid induced ear swelling model in mice; conditions: 30 min before and 15 min after arachidonic acid, measured at 90 minutes
Protocol: Purified 3-methanesulfonylpropionitrile was dissolved in vehicle (ethanol/acetone 1:1) to 5% (w/v). The active compound, indomethacin (positive control in vehicle), and vehicle were topically applied to mice and evaluated for anti-inflammatory activity in the topical arachidonic acid induced ear swelling model in mice, which is a model of irritant contact dermatitis.
Male ICR mice weighing 22±2 g were used and randomly divided; each group had 10 mice. Arachidonic Acid (0.5 mg in 20 μl of acetone:ethanol/1:1) was applied topically to the anterior and posterior surfaces of the right ear of each mice. Test substance and vehicle, as listed in Table 3 were similarly applied 30 min before and 15 min after arachidonic acid application. The thickness of the right ear and the left ear was measured and the difference calculated as an indication of the inflammation in the right ear. Ear swelling was measured by a Dyer model micrometer gauge at 60 and 90 minutes after arachidonic acid application as an index of inflammation. Percent inhibition was calculated according to the formula: Ic−It/Ic×100, where Ic and It refers to increase of ear thickness (mm) in control and treated mice, respectively. ANOVA and Dunnett's test were employed to ascertain significant difference between vehicle control and treated groups. Significance is set at P<0.05 level.

rats = assay: Oral systemic toxicity in rats
dogs = assay: Oral systemic toxicity in dogs
[2] = Systemic (plasma) exposure after oral and subcutaneous administration to rats
Protocol: This study was done to determine the systemic (plasma) exposure of MSPN after administration by the oral and subcutaneous routes to rats.
MSPN substance was prepared in water for oral administration and in saline for subcutaneous administration. Rats weighed 282 to 295 g were used in the study. Male rats (n=2) were given a single dose at 50, 160 or 500 mg/kg by both oral and subcutaneous routes. Female rats (n=2) were dosed only at 500 mg/kg by both oral and subcutaneous routes. The blood was drawn from each rat at 0.25, 1, 2, 3, 4, 6, 12, 24, and 48 hours and measured for MSPN concentration by LC/MS/MS.

[3] = decreased body temperature, decreased respiratory rate, increased blood pressure, increased heart rate

| SMILES | % Inhibition of ear swelling ([1]; (0.5% w/v), 0.1 mg/20 μL) | % Inhibition of ear swelling ([1]; 375 mM (5% w/v), 1 mg/20 μL) | doses at which effects were seen, relative to expected human therapeutic doses (rats) | effects seen after oral, systemic toxicity administration (rats; [3]) | doses at which effects were seen, relative to expected human therapeutic doses (dogs) | effects seen after oral, systemic toxicity administration (dogs; [3]) | Cmax ([2]; rat, plasma, 500 mg/kg, heading: average maximum plasma concentration, male rats, oral, single dose 500 mg/kg, read-out: average maximum plasma concentration (Cmax)) | Cmax ([2]; rat, plasma, sc, 500 mg/kg, heading: average Cmax, female rats, subcutaneous, single dose 500 mg/kg, read-out: average Cmax) | Cmax ([2]; rat, plasma, sc, male rats, subcutaneous, single dose 50 mg/kg, read-out: average maximum plasma concentration (Cmax)) | Cmax ([2]; rat, plasma, sc, male rats, subcutaneous, single dose 160 mg/kg, read-out: average maximum plasma concentration (Cmax)) | Cmax ([2]; rat, plasma, sc, male rats, subcutaneous, single dose 500 mg/kg, read-out: average maximum plasma concentration (Cmax)) | Cmax ([2]; rat, plasma, female rats, oral, single dose 500 mg/kg, read-out: average Cmax) | Cmax ([2]; rat, plasma, male rats, oral, single dose 50 mg/kg, read-out: average maximum plasma concentration (Cmax)) | Cmax ([2]; rat, plasma, male rats, oral, single dose 160 mg/kg, read-out: average maximum plasma concentration (Cmax)) | half-life ([2]; rat, plasma, rats, both routes (oral, subcutaneous) and both sexes, read-out: Half-lives) | bioavailability ([2]; rats, after both the oral and subcutaneous routes) |
| --- | --- | --- | --- | --- | --- | --- | --- | --- | --- | --- | --- | --- | --- | --- | --- | --- |
| COc1ccc2c(c1)c(CC(=O)O)c(C)n2C(=O)c1ccc(Cl)cc1 [Indomethacin, indomethacin, reference compound] | 53% | – | – | – | – | – | – | – | – | – | – | – | – | – | – | – |
| CS(=O)(=O)CCC#N [MSPN, 3-methanesulfonylpropionitrile] | – | 36% | over 2000 fold | mild physiological effects | over 2000 fold | mild physiological effects | 12 µg/mL | 9.5 µg/mL | 160 µg/mL | 760 µg/mL | 3300 µg/mL | 3800 µg/mL | 160 µg/mL | 560 µg/mL | 8 to 15 h | significant bioavailability |
